Test results taken from ChEMBL document CHEMBL1201862, “PubChem BioAssay data set” (2004).
Where “and” joins values, the source holds several entries; their conditions need not be identical. Equal values may be shown once.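 Method: 48-hour compound exposure of cells in 96-well plates, five concentrations, linear interpolation of endpoints. GI50 marks 50% less growth.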 Calls of active or inactive are those of the source. No stated cut-off is given here; in the data, active = GI50 up to about 1.1 µM and inactive = higher.

What was measured:
Assay in all cases: NCI-60 cell line screen, 48 h
[1] = test system: COLO 205
[2] = test system: DLD-1
[3] = test system: MOLT-4
[4] = test system: SK-MEL-2
[5] = test system: NCI-H460
[6] = test system: SF-295
[7] = test system: HT-29
[8] = test system: SK-MEL-5
[9] = test system: 786-0
[10] = test system: Malme-3M
[11] = test system: M14
[12] = test system: SF-268
[13] = test system: SW-620
[14] = test system: DMS-273
[15] = test system: UACC-257
[16] = test system: CCRF-CEM
[17] = test system: OVCAR-4
[18] = test system: HCT-15
[19] = test system: HCC 2998
[20] = test system: SK-MEL-28
[21] = test system: HOP-18
[22] = test system: K562
[23] = test system: LOX IMVI
[24] = test system: A549
[25] = test system: NCI-H522
[26] = test system: KM12
[27] = test system: OVCAR-3
[28] = test system: NCI-H23
[29] = test system: SN12C
[30] = test system: TK-10
[31] = test system: HCT-116
[32] = test system: M19-MEL
[33] = test system: SNB-78
[34] = test system: HOP-62
[35] = test system: UO-31
[36] = test system: EKVX
[37] = test system: HL-60
[38] = test system: NCI-H226
[39] = test system: RPMI-8226
[40] = test system: XF498
[41] = test system: SNB-19
[42] = test system: DMS-114
[43] = test system: SF-539
[44] = test system: OVCAR-5
[45] = test system: OVCAR-8
[46] = test system: CAKI-1
[47] = test system: SNB-75
[48] = test system: ACHN
[49] = test system: HOP-92
[50] = test system: SR
[51] = test system: U-251
[52] = test system: A498
[53] = test system: IGROV-1
[54] = test system: RXF 393
[55] = test system: LXFL 529
[56] = test system: KM-20L2
[57] = test system: SK-OV-3
[58] = test system: UACC-62
[59] = test system: MDA-MB-231
[60] = test system: MDA-MB-435
[61] = test system: BT-549
[62] = test system: T47D
[63] = test system: Hs-578T
[64] = test system: MDA-N
[65] = test system: DU-145
[66] = test system: PC-3

COc1ccc(CNc2cnc3ccc(N)cc3n2)cc1
GI50 [1]: 0.064 µM (active)
GI50 [2]: > 100 µM (inactive)
GI50 [3]: 24.7 µM (inactive)
GI50 [4]: > 100 µM (inactive)
GI50 [5]: > 100 µM (inactive)
GI50 [6]: > 100 µM (inactive)
GI50 [7]: > 100 µM (inactive)
GI50 [8]: 35.3 µM (inactive)
GI50 [9]: > 100 µM (inactive)
GI50 [10]: > 100 µM (inactive)
GI50 [11]: > 100 µM (inactive)
GI50 [12]: > 100 µM (inactive)
GI50 [13]: > 100 µM (inactive)
GI50 [14]: 0.0531 µM (active)
GI50 [15]: > 100 µM (inactive)
GI50 [16]: 49.2 µM (inactive)
GI50 [17]: > 100 µM (inactive)
GI50 [18]: > 100 µM
GI50 [19]: > 100 µM (inactive)
GI50 [20]: 3.84 µM (inactive)
GI50 [21]: > 100 µM (inactive)
GI50 [22]: > 100 µM (inactive)
GI50 [23]: > 100 µM (inactive)
GI50 [24]: > 100 µM (inactive)
GI50 [25]: > 100 µM (inactive)
GI50 [26]: > 100 µM (inactive)
GI50 [27]: > 100 µM (inactive)
GI50 [28]: > 100 µM (inactive)
GI50 [29]: > 100 µM (inactive)
GI50 [30]: > 100 µM (inactive)
GI50 [31]: 0.0622 µM (active)
GI50 [32]: 0.243 µM (active)
GI50 [33]: 82.8 µM (inactive)
GI50 [34]: > 100 µM (inactive)
GI50 [35]: > 100 µM (inactive)
GI50 [36]: > 100 µM (inactive)
GI50 [37]: > 100 µM (inactive)
GI50 [38]: > 100 µM (inactive)
GI50 [39]: 81.8 µM (inactive)
GI50 [40]: > 100 µM (inactive)
GI50 [41]: > 100 µM (inactive)
GI50 [42]: 2.09 µM (inactive)
GI50 [43]: > 100 µM (inactive)
GI50 [44]: > 100 µM (inactive)
GI50 [45]: > 100 µM (inactive)
GI50 [46]: > 100 µM (inactive)
GI50 [47]: 64.6 µM (inactive)
GI50 [48]: > 100 µM (inactive)

c1cnc2c(c1)-n1cccc1C1(CCOCC1)NN2
GI50 [1]: > 100 µM (inactive)
GI50 [2]: > 100 µM (inactive)
GI50 [49]: > 100 µM (inactive)
GI50 [3]: > 100 µM (inactive)
GI50 [4]: > 100 µM (inactive)
GI50 [5]: > 100 µM (inactive)
GI50 [6]: > 100 µM (inactive)
GI50 [7]: > 100 µM (inactive)
GI50 [8]: > 100 µM (inactive)
GI50 [9]: > 100 µM (inactive)
GI50 [10]: > 100 µM (inactive)
GI50 [11]: > 100 µM (inactive)
GI50 [50]: > 100 µM (inactive)
GI50 [12]: > 100 µM (inactive)
GI50 [13]: > 100 µM (inactive)
GI50 [14]: > 100 µM (inactive)
GI50 [16]: > 100 µM (inactive)
GI50 [51]: > 100 µM (inactive)
GI50 [17]: > 100 µM (inactive)
GI50 [18]: > 100 µM
GI50 [19]: > 100 µM (inactive)
GI50 [20]: > 100 µM (inactive)
GI50 [21]: > 100 µM (inactive)
GI50 [22]: > 100 µM (inactive)
GI50 [24]: > 100 µM (inactive)
GI50 [25]: > 100 µM (inactive)
GI50 [26]: > 100 µM (inactive)
GI50 [52]: > 100 µM (inactive)
GI50 [27]: > 100 µM (inactive)
GI50 [28]: > 100 µM (inactive)
GI50 [29]: > 100 µM (inactive)
GI50 [30]: > 100 µM (inactive)
GI50 [31]: > 100 µM (inactive)
GI50 [32]: > 100 µM (inactive)
GI50 [35]: > 100 µM (inactive)
GI50 [36]: > 100 µM (inactive)
GI50 [53]: > 100 µM (inactive)
GI50 [37]: > 100 µM (inactive)
GI50 [38]: > 100 µM (inactive)
GI50 [54]: > 100 µM (inactive)
GI50 [39]: > 100 µM (inactive)
GI50 [40]: > 100 µM (inactive)
GI50 [41]: > 100 µM (inactive)
GI50 [42]: > 100 µM (inactive)
GI50 [43]: > 100 µM (inactive)
GI50 [45]: > 100 µM (inactive)
GI50 [55]: > 100 µM (inactive)
GI50 [56]: > 100 µM (inactive)
GI50 [46]: > 100 µM (inactive)
GI50 [57]: > 100 µM (inactive)
GI50 [47]: > 100 µM (inactive)
GI50 [48]: > 100 µM (inactive)

CC12CO[C@@](C)(CC(S(=O)(=O)c3ccccc3)C1)O2 (stereo partly drawn)
GI50 [1]: > 100 µM (inactive)
GI50 [2]: > 100 µM (inactive)
GI50 [49]: > 100 µM (inactive)
GI50 [3]: > 100 µM (inactive)
GI50 [4]: > 100 µM (inactive)
GI50 [5]: > 100 µM (inactive)
GI50 [6]: > 100 µM (inactive)
GI50 [7]: > 100 µM (inactive)
GI50 [8]: > 100 µM (inactive)
GI50 [9]: > 100 µM (inactive)
GI50 [10]: > 100 µM (inactive)
GI50 [11]: > 100 µM (inactive)
GI50 [50]: > 100 µM (inactive)
GI50 [12]: > 100 µM (inactive)
GI50 [13]: > 100 µM (inactive)
GI50 [14]: > 100 µM (inactive)
GI50 [15]: > 100 µM (inactive)
GI50 [16]: > 100 µM (inactive)
GI50 [51]: > 100 µM (inactive)
GI50 [17]: > 100 µM (inactive)
GI50 [18]: > 100 µM
GI50 [19]: > 100 µM (inactive)
GI50 [20]: > 100 µM (inactive)
GI50 [21]: > 100 µM (inactive)
GI50 [22]: > 100 µM (inactive)
GI50 [24]: > 100 µM (inactive)
GI50 [25]: > 100 µM (inactive)
GI50 [26]: > 100 µM (inactive)
GI50 [27]: > 100 µM (inactive)
GI50 [28]: > 100 µM (inactive)
GI50 [29]: > 100 µM (inactive)
GI50 [31]: > 100 µM (inactive)
GI50 [32]: > 100 µM (inactive)
GI50 [33]: > 100 µM (inactive)
GI50 [34]: > 100 µM (inactive)
GI50 [35]: > 100 µM (inactive)
GI50 [36]: > 100 µM (inactive)
GI50 [53]: > 100 µM (inactive)
GI50 [37]: > 100 µM (inactive)
GI50 [54]: > 100 µM (inactive)
GI50 [39]: > 100 µM (inactive)
GI50 [41]: > 100 µM (inactive)
GI50 [42]: > 100 µM (inactive)
GI50 [43]: > 100 µM (inactive)
GI50 [44]: > 100 µM (inactive)
GI50 [45]: > 100 µM (inactive)
GI50 [55]: > 100 µM (inactive)
GI50 [56]: > 100 µM (inactive)
GI50 [58]: > 100 µM (inactive)
GI50 [57]: > 100 µM (inactive)
GI50 [47]: 37 µM (inactive)
GI50 [48]: > 100 µM (inactive)

Cc1cc(O)c2c(=O)c3c(O)cc(O)c4c5c(O)cc(O)c6c(=O)c7c(O)cc(C)c8c1c2c(c34)c(c78)c65 [HYPERICIN]
GI50 [2]: 21.3 µM (inactive)
GI50 [59]: 10.1 µM (inactive)
GI50 [8]: 59.8 µM (inactive)
GI50 [9]: > 100 µM (inactive)
GI50 [60]: > 100 µM (inactive)
GI50 [10]: 61 µM (inactive)
GI50 [11]: > 100 µM (inactive)
GI50 [61]: > 100 µM (inactive)
GI50 [50]: 99.8 µM (inactive)
GI50 [12]: 54 µM (inactive)
GI50 [13]: 51.9 µM (inactive)
GI50 [14]: 56.4 µM (inactive)
GI50 [62]: > 100 µM (inactive)
GI50 [20]: 53.1 µM (inactive)
GI50 [21]: 63.1 µM (inactive)
GI50 [63]: > 100 µM (inactive)
GI50 [22]: 61.8 µM (inactive) and 33.3 µM (inactive)
GI50 [24]: 52.6 µM (inactive)
GI50 [26]: 54.5 µM (inactive)
GI50 [27]: > 100 µM (inactive) and 67 µM (inactive)
GI50 [29]: 60.8 µM (inactive)
GI50 [30]: > 100 µM (inactive)
GI50 [32]: 44.2 µM (inactive)
GI50 [33]: 42.5 µM (inactive)
GI50 [34]: 28.3 µM (inactive)
GI50 [36]: > 100 µM (inactive) and 62.5 µM (inactive)
GI50 [54]: 26.4 µM (inactive)
GI50 [40]: 71.1 µM (inactive)
GI50 [64]: > 100 µM (inactive)
GI50 [41]: > 100 µM (inactive)
GI50 [65]: > 100 µM (inactive)
GI50 [66]: > 100 µM (inactive)
GI50 [45]: 74.3 µM (inactive)
GI50 [56]: 21.7 µM (inactive)
GI50 [46]: > 100 µM (inactive)
GI50 [48]: > 100 µM (inactive)
